{
  "source": "ChEMBL document CHEMBL1147269",
  "about": "“Cribrarione B, a new naphthoquinone pigment from the myxomycete Cribraria cancellata” (J Nat Prod, 2003)",
  "test_system": "Bacillus subtilis",
  "experiment": "Antimicrobial activity against Bacillus subtilis",
  "assay_type": "functional, organism-based",
  "note": "The source made the active and inactive calls. The rule behind the calls is not given here.",
  "data": [
    {"smiles": "CC(O)c1cc(O)c2c(c1O)C(=O)C=C(O)C2=O", "note": "(stereo unspecified)", "values": [
      {"measurement": "Activity", "result": "inactive"}
    ]}
  ]
}
